# Experimental data taken from ChEMBL document CHEMBL3044572, “Discovery of 2-(4-cyano-3-trifluoromethylphenyl amino)-4-(4-quinazolinyloxy)-6-piperazinyl(piperidinyl)-s-triazines as potential antibacterial agents” (2012).
# Calls of active or inactive are those of the source. The calls are words filed in the database; no cut-off is given here.
# Tests used:
# Salmonella typhi [1] = experiment: Antimicrobial activity against Salmonella enterica subsp. enterica serovar Typhi MTCC 733 by agar streak dilution method; type: functional
# Staphylococcus aureus [2] = experiment: Antimicrobial activity against Staphylococcus aureus MTCC 96 by paper-disk diffusion method; type: functional
# Aspergillus niger [3] = experiment: Antimicrobial activity against Aspergillus niger MTCC 282 by agar streak dilution method; type: functional
# Klebsiella pneumoniae [4] = experiment: Antimicrobial activity against Klebsiella pneumoniae MTCC 109 at 100 ug/ml by paper disk diffusion method; type: functional, organism-based
# Aspergillus niger [5] = experiment: Antimicrobial activity against Aspergillus niger MTCC 282 by paper-disk diffusion method; type: functional
# Bacillus cereus [6] = experiment: Antimicrobial activity against Bacillus cereus MTCC 619 by agar streak dilution method; type: functional
# Aspergillus clavatus [7] = experiment: Antimicrobial activity against Aspergillus clavatus MTCC 1323 by agar streak dilution method; type: functional
# Shigella flexneri [8] = experiment: Antimicrobial activity against Shigella flexneri MTCC 1457 at 100 ug/ml by paper-disk diffusion method; type: functional, organism-based
# [9] = test system: Mycobacterium tuberculosis; experiment: Antimicrobial activity against Mycobacterium tuberculosis H37Rv by Lowenstein and Jensen method; type: functional; details: for MIC: Mycobacterium tuberculosis, H37Rv
# Candida albicans [10] = experiment: Antimicrobial activity against Candida albicans MTCC 183 by agar streak dilution method; type: functional
# Pseudomonas aeruginosa [11] = experiment: Antimicrobial activity against Pseudomonas aeruginosa MTCC 741 by agar streak dilution method; type: functional
# Bacillus cereus [12] = experiment: Antimicrobial activity against Bacillus cereus MTCC 619 by paper disk diffusion method; type: functional
# Escherichia coli [13] = experiment: Antimicrobial activity against Escherichia coli MTCC 739 by agar streak dilution method; type: functional
# Aspergillus clavatus [14] = experiment: Antimicrobial activity against Aspergillus clavatus MTCC 1323 by paper disk diffusion method; type: functional
# Aspergillus fumigatus [15] = experiment: Antimicrobial activity against Aspergillus fumigatus MTCC 343 by paper-disk diffusion method; type: functional
# [16] = test system: Mycobacterium tuberculosis; experiment: Antimicrobial activity against Mycobacterium tuberculosis H37Rv at 100 ug/ml by BACTEC MGIT method; type: functional, organism-based
# [17] = test system: Mycobacterium tuberculosis; experiment: Antimicrobial activity against Mycobacterium tuberculosis H37Rv by BACTEC MGIT method; type: functional; details: Mycobacterium tuberculosis, H37Rv
# Staphylococcus aureus [18] = experiment: Antimicrobial activity against Staphylococcus aureus MTCC 96 by agar streak dilution method; type: functional
# Aspergillus fumigatus [19] = experiment: Antimicrobial activity against Aspergillus fumigatus MTCC 343 by agar streak dilution method; type: functional
# Salmonella typhi [20] = experiment: Antimicrobial activity against Salmonella enterica subsp. enterica serovar Typhi MTCC 733 by paper disk diffusion method; type: functional
# Candida albicans [21] = experiment: Antimicrobial activity against Candida albicans MTCC 183 by paper-disk diffusion method; type: functional
# Pseudomonas aeruginosa [22] = experiment: Antimicrobial activity against Pseudomonas aeruginosa MTCC 741 by paper disk diffusion method; type: functional
# Proteus vulgaris [23] = experiment: Antimicrobial activity against Proteus vulgaris MTCC 1771 by paper disk diffusion method; type: functional
# Escherichia coli [24] = experiment: Antimicrobial activity against Escherichia coli MTCC 739 by paper disk diffusion method; type: functional
# Proteus vulgaris [25] = experiment: Antimicrobial activity against Proteus vulgaris MTCC 1771 by agar streak dilution method; type: functional
# Klebsiella pneumoniae [26] = experiment: Antimicrobial activity against Klebsiella pneumoniae MTCC 109 by paper disk diffusion method; type: functional
# Klebsiella pneumoniae [27] = experiment: Antimicrobial activity against Klebsiella pneumoniae MTCC 109 by agar streak dilution method; type: functional
# Aspergillus clavatus [28] = experiment: Antimicrobial activity against Aspergillus clavatus MTCC 1323 at 100 ug/ml by paper disk diffusion method; type: functional, organism-based
# Aspergillus fumigatus [29] = experiment: Antimicrobial activity against Aspergillus fumigatus MTCC 343 at 100 ug/ml by paper-disk diffusion method; type: functional, organism-based
# Pseudomonas aeruginosa [30] = experiment: Antimicrobial activity against Pseudomonas aeruginosa MTCC 741 at 100 ug/ml by paper disk diffusion method; type: functional, organism-based
# Shigella flexneri [31] = experiment: Antimicrobial activity against Shigella flexneri MTCC 1457 by paper disk diffusion method; type: functional
# Shigella flexneri [32] = experiment: Antimicrobial activity against Shigella flexneri MTCC 1457 by agar streak dilution method; type: functional
smiles,measurement,setting,value
N#Cc1ccc(Nc2nc(Oc3ncnc4ccccc34)nc(N3CCN(C(c4ccccc4)c4ccccc4)CC3)n2)cc1C(F)(F)F,MIC,Salmonella typhi [1],100 µg/mL
same,inhibition zone (IZ),Staphylococcus aureus [2],25 mm
same,MIC,Aspergillus niger [3],100 µg/mL
same,inhibition zone (IZ),Klebsiella pneumoniae [4],inactive
same,inhibition zone (IZ),Aspergillus niger [5],21 mm
same,MIC,Bacillus cereus [6],100 µg/mL
same,MIC,Aspergillus clavatus [7],100 µg/mL
same,inhibition zone (IZ),Shigella flexneri [8],inactive
same,inhibition (percent inhibition),[9],97%
same,MIC,[9],62.5 µg/mL
same,MIC,Candida albicans [10],100 µg/mL
same,MIC,Pseudomonas aeruginosa [11],50 µg/mL
same,inhibition zone (IZ),Bacillus cereus [12],24 mm
same,MIC,Escherichia coli [13],100 µg/mL
same,inhibition zone (IZ),Aspergillus clavatus [14],21 mm
same,inhibition zone (IZ),Aspergillus fumigatus [15],23 mm
same,inhibition,[16],inactive
same,MIC,[17],> 6.25 µg/mL
same,MIC,Staphylococcus aureus [18],25 µg/mL
same,MIC,Aspergillus fumigatus [19],100 µg/mL
same,inhibition zone (IZ),Salmonella typhi [20],23 mm
same,inhibition zone (IZ),Candida albicans [21],21 mm
same,inhibition zone (IZ),Pseudomonas aeruginosa [22],22 mm
same,inhibition zone (IZ),Proteus vulgaris [23],21 mm
same,inhibition zone (IZ),Escherichia coli [24],23 mm
same,MIC,Proteus vulgaris [25],100 µg/mL
N#Cc1ccc(Nc2nc(Oc3ncnc4ccccc34)nc(N3CCN(c4ncccn4)CC3)n2)cc1C(F)(F)F,MIC,Salmonella typhi [1],50 µg/mL
same,inhibition zone (IZ),Staphylococcus aureus [2],23 mm
same,MIC,Aspergillus niger [3],100 µg/mL
same,inhibition zone (IZ),Aspergillus niger [5],22 mm
same,MIC,Bacillus cereus [6],50 µg/mL
same,inhibition zone (IZ),Klebsiella pneumoniae [26],20 mm
same,inhibition zone (IZ),Shigella flexneri [8],inactive
same,inhibition (percent inhibition),[9],96%
same,MIC,[9],200 µg/mL
same,MIC,Candida albicans [10],100 µg/mL
same,MIC,Klebsiella pneumoniae [27],100 µg/mL
same,MIC,Pseudomonas aeruginosa [11],50 µg/mL
same,inhibition zone (IZ),Bacillus cereus [12],25 mm
same,MIC,Escherichia coli [13],100 µg/mL
same,inhibition zone (IZ),Aspergillus clavatus [28],inactive
same,inhibition,[16],inactive
same,inhibition zone (IZ),Aspergillus fumigatus [29],inactive
same,MIC,[17],> 6.25 µg/mL
same,MIC,Staphylococcus aureus [18],25 µg/mL
same,inhibition zone (IZ),Salmonella typhi [20],22 mm
same,inhibition zone (IZ),Candida albicans [21],22 mm
same,inhibition zone (IZ),Pseudomonas aeruginosa [22],22 mm
same,inhibition zone (IZ),Proteus vulgaris [23],21 mm
same,inhibition zone (IZ),Escherichia coli [24],23 mm
same,MIC,Proteus vulgaris [25],100 µg/mL
N#Cc1ccc(Nc2nc(Oc3ncnc4ccccc34)nc(N3CCN(Cc4ccccc4)CC3)n2)cc1C(F)(F)F,MIC,Salmonella typhi [1],100 µg/mL
same,inhibition zone (IZ),Staphylococcus aureus [2],22 mm
same,MIC,Aspergillus niger [3],100 µg/mL
same,inhibition zone (IZ),Aspergillus niger [5],21 mm
same,MIC,Bacillus cereus [6],100 µg/mL
same,MIC,Aspergillus clavatus [7],100 µg/mL
same,inhibition zone (IZ),Klebsiella pneumoniae [26],23 mm
same,inhibition (percent inhibition),[9],95%
same,MIC,[9],500 µg/mL
same,inhibition zone (IZ),Pseudomonas aeruginosa [30],inactive
same,MIC,Candida albicans [10],100 µg/mL
same,MIC,Klebsiella pneumoniae [27],100 µg/mL
same,inhibition zone (IZ),Bacillus cereus [12],23 mm
same,MIC,Escherichia coli [13],100 µg/mL
same,inhibition zone (IZ),Aspergillus clavatus [14],20 mm
same,inhibition,[16],inactive
same,inhibition zone (IZ),Shigella flexneri [31],20 mm
same,inhibition zone (IZ),Aspergillus fumigatus [29],inactive
same,MIC,[17],> 6.25 µg/mL
same,MIC,Staphylococcus aureus [18],50 µg/mL
same,inhibition zone (IZ),Salmonella typhi [20],23 mm
same,inhibition zone (IZ),Candida albicans [21],21 mm
same,inhibition zone (IZ),Proteus vulgaris [23],21 mm
same,MIC,Shigella flexneri [32],100 µg/mL
same,inhibition zone (IZ),Escherichia coli [24],21 mm
same,MIC,Proteus vulgaris [25],100 µg/mL
CC(C)N1CCN(c2nc(Nc3ccc(C#N)c(C(F)(F)F)c3)nc(Oc3ncnc4ccccc34)n2)CC1,MIC,Salmonella typhi [1],50 µg/mL
same,inhibition zone (IZ),Staphylococcus aureus [2],25 mm
same,MIC,Aspergillus niger [3],100 µg/mL
same,inhibition zone (IZ),Aspergillus niger [5],22 mm
same,MIC,Bacillus cereus [6],50 µg/mL
same,MIC,Aspergillus clavatus [7],25 µg/mL
same,inhibition zone (IZ),Klebsiella pneumoniae [26],22 mm
same,inhibition zone (IZ),Shigella flexneri [8],inactive
same,inhibition (percent inhibition),[9],97%
same,MIC,[9],50 µg/mL
same,MIC,Candida albicans [10],50 µg/mL
same,MIC,Klebsiella pneumoniae [27],50 µg/mL
same,MIC,Pseudomonas aeruginosa [11],12.5 µg/mL
same,inhibition zone (IZ),Bacillus cereus [12],23 mm
same,MIC,Escherichia coli [13],12.5 µg/mL
same,inhibition zone (IZ),Aspergillus clavatus [14],23 mm
same,inhibition zone (IZ),Aspergillus fumigatus [15],23 mm
same,inhibition,[16],inactive
same,MIC,[17],> 6.25 µg/mL
same,MIC,Staphylococcus aureus [18],25 µg/mL
same,MIC,Aspergillus fumigatus [19],50 µg/mL
same,inhibition zone (IZ),Salmonella typhi [20],23 mm
same,inhibition zone (IZ),Candida albicans [21],23 mm
same,inhibition zone (IZ),Pseudomonas aeruginosa [22],24 mm
same,inhibition zone (IZ),Proteus vulgaris [23],24 mm
same,inhibition zone (IZ),Escherichia coli [24],27 mm
same,MIC,Proteus vulgaris [25],25 µg/mL
N#Cc1ccc(Nc2nc(Oc3ncnc4ccccc34)nc(N3CCC(Cc4ccccc4)CC3)n2)cc1C(F)(F)F,MIC,Salmonella typhi [1],100 µg/mL
same,inhibition zone (IZ),Staphylococcus aureus [2],23 mm
same,MIC,Aspergillus niger [3],100 µg/mL
same,inhibition zone (IZ),Aspergillus niger [5],21 mm
same,MIC,Bacillus cereus [6],100 µg/mL
same,MIC,Aspergillus clavatus [7],100 µg/mL
same,inhibition zone (IZ),Klebsiella pneumoniae [26],23 mm
same,inhibition zone (IZ),Shigella flexneri [8],inactive
same,inhibition (percent inhibition),[9],94%
same,MIC,[9],500 µg/mL
same,MIC,Candida albicans [10],100 µg/mL
same,MIC,Klebsiella pneumoniae [27],100 µg/mL
same,MIC,Pseudomonas aeruginosa [11],100 µg/mL
same,inhibition zone (IZ),Bacillus cereus [12],23 mm
same,MIC,Escherichia coli [13],100 µg/mL
same,inhibition zone (IZ),Aspergillus clavatus [14],20 mm
same,inhibition zone (IZ),Aspergillus fumigatus [15],21 mm
same,inhibition,[16],inactive
same,MIC,[17],> 6.25 µg/mL
same,MIC,Staphylococcus aureus [18],100 µg/mL
same,MIC,Aspergillus fumigatus [19],100 µg/mL
same,inhibition zone (IZ),Salmonella typhi [20],22 mm
same,inhibition zone (IZ),Candida albicans [21],22 mm
same,inhibition zone (IZ),Pseudomonas aeruginosa [22],19 mm
same,inhibition zone (IZ),Proteus vulgaris [23],23 mm
same,inhibition zone (IZ),Escherichia coli [24],21 mm
same,MIC,Proteus vulgaris [25],25 µg/mL
